The values below come from ChEMBL document CHEMBL1201862, “PubChem BioAssay data set” (2004).

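Following 48 hours of exposure in 96-well plates, responses at five concentrations were used to interpolate endpoints linearly. Here, GI50 denotes the concentration required for 50% inhibition of growth.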 Activity calls are given as the source filed them. Rule as the data show it: active = GI50 up to about 1.1 µM and inactive = higher.

Test in all cases: growth of human tumour cells (NCI), 48 h
Assay [1] has as its system NCI-H226.
Assay [2] relates to DU-145.
Assay [3] concerns ACHN.
Assay [4] relates to HCC 2998.
The subject of assay [5] is UACC-62.
The test system of assay [6] is HOP-92.
The test system of assay [7] is NCI/ADR-RES.
Assay [8] has as its system M14.
Assay [9] relates to 786-0.
The subject of assay [10] is NCI-H23.
Assay [11] concerns MDA-MB-435.
In assay [12] the test system is CCRF-CEM.
Assay [13] has as its system LOX IMVI.
In assay [14] the test system is TK-10.
The test system of assay [15] is SF-539.
The subject of assay [16] is U-251.
Assay [17] has as its system T47D.
In assay [18] the test system is OVCAR-4.
Assay [19] relates to HL-60.
Assay [20] deals with SN12C.

Regarding `COc1ccccc1NC(=S)N/N=C/c1c(C)n(C)n(-c2ccccc2)c1=O`, the GI50 was 82.4 µM (inactive) in assay [1]; 40.8 µM (inactive) in [2]; > 100 µM (inactive) in [3]; > 100 µM (inactive) in assay [4]; > 100 µM (inactive) in assay [5]; 43.6 µM (inactive) in [6]. The GI50 in [7] is 21.1 µM (inactive); in assay [8], 61.8 µM (inactive); in assay [9] it was > 100 µM (inactive); in assay [10], > 100 µM (inactive); in assay [11], 34.6 µM (inactive); in assay [12], > 100 µM (inactive). For the same molecule, the GI50 was 49.8 µM (inactive) in [13]; > 100 µM (inactive) in assay [14]; 49.9 µM (inactive) in assay [15]; > 100 µM (inactive) in assay [16]; > 100 µM (inactive) in assay [17]; > 100 µM (inactive) in assay [18]. Besides, the GI50 in assay [19] is > 100 µM (inactive).
Consider `COc1ccc(CCNC(=O)CCCCCO)cc1OC`, for which the GI50 in [1], in assay [2], in assay [3], in assay [20], in assay [4] and in assay [5] was > 100 µM (inactive) throughout. Moreover, the GI50 in [6], in assay [7], in assay [8], in assay [9], in assay [10] and in assay [11] was > 100 µM (inactive) in each case. In addition, the GI50 in [12], in assay [14], in assay [15], in assay [16], in assay [17] and in [18] was > 100 µM (inactive) throughout. For the same molecule, the GI50 in assay [19] was > 100 µM (inactive).
With `COc1ccc(NC(=S)N/N=C(\C)c2nc3cccnc3[nH]2)cc1`, the GI50 in [1] is 3.73 µM (inactive); in assay [2], 6.17 µM (inactive); in [3], 4.29 µM (inactive); in [20] it was 5.65 µM (inactive); in assay [4], 7.55 µM (inactive); in assay [5], 3.93 µM (inactive). Further, the GI50 in assay [6] was 4.4 µM (inactive); in [7] it was 6.62 µM (inactive); in assay [9], 4.99 µM (inactive); in [10] it was 10 µM (inactive); in [11], 6.62 µM (inactive); in assay [12], 2.45 µM (inactive). The GI50 is 3.18 µM (inactive) in assay [13]; 0.637 µM (active) in assay [14]; 2.9 µM (inactive) in assay [15]; 3.87 µM (inactive) in assay [16]; 3.26 µM (inactive) in assay [17]; 4.94 µM (inactive) in assay [18]. In addition, the GI50 in assay [19] is 2.69 µM (inactive).
Turning to `NC(CSCc1ccc(I)cc1)C(=O)O` (centres undefined), the GI50 in [1], in assay [2], in assay [3], in [20], in [4] and in [5] was > 100 µM (inactive) each time. Besides, the GI50 in [6], in assay [7], in assay [8], in [9], in assay [10] and in assay [11] was > 100 µM (inactive) throughout. Moreover, the GI50 in assay [12], in assay [13], in assay [14], in [16], in assay [17] and in [18] was > 100 µM (inactive) throughout. Besides, the GI50 in assay [19] is > 100 µM (inactive).
`Cc1ccsc1C(=O)C(CC(=O)c1cccs1)c1ccsc1` (centres undefined): the GI50 in assay [1] is > 100 µM (inactive); in assay [2] it was > 100 µM (inactive); in assay [3], > 100 µM (inactive); in assay [20], > 100 µM (inactive); in assay [4] it was > 100 µM (inactive); in assay [5], > 10 µM (inactive). The GI50 in assay [6] was > 100 µM (inactive); in assay [7], 37.7 µM (inactive); in assay [8], > 100 µM (inactive); in assay [9], > 100 µM (inactive); in assay [10], > 100 µM (inactive); in [11] it was > 100 µM (inactive). Moreover, the GI50 is > 100 µM (inactive) in assay [12]; > 100 µM (inactive) in assay [14]; > 100 µM (inactive) in assay [15]; > 100 µM (inactive) in assay [16]; 14.5 µM (inactive) in [17]; > 100 µM (inactive) in [18].
Take `CCc1nn(CN2CCN(C)CC2)c(=S)n1/N=C\c1ccc(-c2ccc([N+](=O)[O-])cc2)o1`: the GI50 is 22.7 µM (inactive) in assay [1]; 50.2 µM (inactive) in [2]; 36.9 µM (inactive) in [3]; 58.2 µM (inactive) in [20]; 48.5 µM (inactive) in assay [4]; 39 µM (inactive) in [5]. The GI50 was 30.4 µM (inactive) in assay [6]; 25.9 µM (inactive) in assay [7]; 80.4 µM (inactive) in assay [8]; 29.9 µM (inactive) in assay [9]; 34.9 µM (inactive) in assay [10]; 66.1 µM (inactive) in assay [11]. Besides, the GI50 in assay [12] is 22.5 µM (inactive); in assay [13] it was 59 µM (inactive); in assay [14], 28.5 µM (inactive); in assay [16] it was 43.6 µM (inactive); in assay [17] it was 19.9 µM (inactive); in [18], 44 µM (inactive). Moreover, in assay [19], the GI50 was > 100 µM (inactive).
Regarding `Cc1ccnc(NC(=S)Nc2ccc([N+](=O)[O-])cc2)c1`, the GI50 was > 100 µM (inactive) in [1]; 34.6 µM (inactive) in assay [2]; > 100 µM (inactive) in assay [3]; > 100 µM (inactive) in [4]; > 100 µM (inactive) in assay [5]; 31.1 µM (inactive) in assay [6]. The GI50 is 56.5 µM (inactive) in assay [7]; > 100 µM (inactive) in [8]; 75.3 µM (inactive) in [9]; > 100 µM (inactive) in assay [10]; > 100 µM (inactive) in assay [11]; > 100 µM (inactive) in [12]. For the same molecule, the GI50 was > 100 µM (inactive) in assay [13]; > 100 µM (inactive) in assay [14]; 26.4 µM (inactive) in assay [15]; 49 µM (inactive) in [16]; > 100 µM (inactive) in [17]; > 100 µM (inactive) in assay [18]. For the same molecule, the GI50 in assay [19] was > 100 µM (inactive).
For the molecule `COc1cc(C=C(c2ccc(N(C)C)cc2)c2ccc(N(C)C)cc2)c2ccccc2c1OC`, the GI50 in assay [1] was 41 µM (inactive); in [2] it was > 100 µM (inactive); in assay [3], 49.4 µM (inactive); in assay [20], > 100 µM (inactive); in assay [4], 87.7 µM (inactive); in assay [5], 27.4 µM (inactive). The GI50 is > 100 µM (inactive) in assay [6]; 23.4 µM (inactive) in [7]; 63.1 µM (inactive) in [8]; > 100 µM (inactive) in assay [9]; > 100 µM (inactive) in assay [10]; 22.3 µM (inactive) in assay [11]. The GI50 in assay [12] was 18.6 µM (inactive); in assay [13], 64.9 µM (inactive); in [14], > 100 µM (inactive); in [16] it was 54 µM (inactive); in [17], > 100 µM (inactive); in [18], 70.3 µM (inactive). Also, in assay [19], the GI50 was 9.29 µM (inactive).
For the molecule `COc1ccc(OC)c(N2C(=O)/C(=C\c3ccccc3)SC2c2cc(OC)c(OC)c(OC)c2)c1` (centres undefined), the GI50 in assay [1] is > 100 µM (inactive); in assay [2], > 100 µM (inactive); in assay [3], 1.09 µM (active); in assay [20], > 100 µM (inactive); in [4], > 100 µM (inactive); in assay [5], 4.06 µM (inactive). In addition, the GI50 in assay [6] was 17.5 µM (inactive); in [7], > 71.3 µM (inactive); in [8], > 100 µM (inactive); in assay [9], > 96.6 µM (inactive); in assay [10], > 80.5 µM (inactive); in assay [11], 26.5 µM (inactive). In addition, the GI50 is 49.5 µM (inactive) in assay [12]; > 100 µM (inactive) in assay [13]; > 100 µM (inactive) in assay [14]; > 100 µM (inactive) in assay [16]; 12.4 µM (inactive) in assay [17]; > 91.8 µM (inactive) in [18]. For the same molecule, in assay [19], the GI50 is 58.9 µM (inactive).
As to `O=C(/C=C1\C[C@H]2C=Nc3ccccc3C(=O)N2C1)NCCCNC(=O)/C=C1\C[C@H]2C=Nc3ccccc3C(=O)N2C1`, the GI50 in assay [1] is 20.7 µM (inactive); in [2], 18.5 µM (inactive); in assay [3], 14.9 µM (inactive); in assay [20], 18 µM (inactive); in [4], 20.2 µM (inactive); in assay [5], 15.7 µM (inactive). Besides, the GI50 is 20 µM (inactive) in [6]; 23.3 µM (inactive) in assay [7]; 14.4 µM (inactive) in [8]; 3.03 µM (inactive) in assay [9]; 15.5 µM (inactive) in [10]; 19.1 µM (inactive) in assay [11]. Also, the GI50 in assay [13] is 6.25 µM (inactive); in assay [14] it was 19.8 µM (inactive); in assay [15], 18.3 µM (inactive); in assay [16] it was 13.6 µM (inactive); in [17], 16 µM (inactive); in assay [18], 18.2 µM (inactive). Further, the GI50 in [19] was 8.73 µM (inactive).
